Where “and” joins values, the source holds several entries; their conditions need not be identical. Equal values may be shown once. Each block holds one molecule with its values, some of them ahead of it.
Experiments:
[1] = cited from earlier work
[2] = Pharmacokinetics of ^63Zn Citrate in cerebral cortical region of interest; assay type: in vivo, human; details: for Vascular clearance phase in cerebral cortical region of interest: post-injection
[3] = Biodistribution of ^63Zn citrate in normal mice; assay type: in vivo
Method: Uptake may be measured in units of Standardized Uptake Value (SUV)=(uptake/g tissue)/(injected dose/g body mass).
Biodistribution characteristics of ^63Zn citrate were investigated in male B6.SJL mice (n=4) (Jackson Laboratories, Bar Harbor, Me., USA) under the approval of the Mayo Clinic Institutional Animal Care and Use Committee. Animals were administered ^63Zn citrate (˜1.8-3.6 MBq) into a tail vein and euthanized at 60 minutes for biodistribution analysis. Tissues were weighed and counted for radioactivity. Biodistribution data were expressed as Standard Uptake Value (SUV)=(counts/g)tissue/(injected dose counts/wt. of mouse (g)).
Biodistribution data was expressed as mean±sd. Statistical comparison of analytical data between groups of runs was performed using the two-tailed Student's T-test. Statistical comparison of intracerebral regional uptake of ^63Zn was performed using ANOVA. P-values <0.05 were considered statistically significant.

[4] = Pharmacokinetics of ^63Zn Citrate in blood and plasma of an Alzheimer's disease patient; assay type: in vivo, human
Method: Venous blood samples were taken in heparinized tubes after injection of radiotracer. The samples were centrifuged, and plasma separated. The curves show a rapid clearance of ^63Zn from the blood that is completed by 90 minutes. After this time, the concentrations of ^63Zn in both plasma and whole blood are relatively constant. The concentration of ^63Zn in whole-blood rises relative to plasma to reach equilibrium at around 90 minutes post-injection.

[5] = PET images of ^63Zn Citrate in human subjects; assay type: in vivo
Source text: High uptake is seen in liver, pancreas, spleen, intestines, and thyroid.

[6] = Biodistribution of ^63Zn citrate in normal mice; assay type: in vivo; remark: listed apart in the source
[7] = brain at 30 minutes; vs Be, Sc, V, Cr, Mn, Fe, Co, As, Se, Rb, Sr, Y, Zr, Tc, Ru; cited from earlier work
[8] = subject with Alzheimer's disease
[9] = mean of normal mice, 1 hour after IV
[10] = individual normal (Wild) mice 1-5, 1 hour after IV
[11] = individual normal (Wild) mice 3-5, 1 hour after IV
[12] = mean of normal mice, 1 hour after IV, listed as 63Zn
[13] = mean of normal mice, 1 hour after IV, listed as 63Zn Citrate

Compound: CN(C)Cc1ccc2c(Cl)cc(Cl)c(O)c2n1 [PBT2]
- Levels of AβO and p-Tau in the cerebrospinal fluid (CSF) ([1]; AD patients treated for a 12-week period): significantly decreased
- Cognitive test scores ([1]; AD patients, 12-week period, highest dose level (250 mg daily)): significant improvement

- Clearance from the cortical brain region between 50 minutes and 90 minutes ([2]; healthy elderly subject): little clearance
- Clearance from the cortical brain region between 50 minutes and 90 minutes [2, 8]: little clearance
- SUV, Kidney, Average [3, 9]: 4.2±1.3 SUV and 4.21 ± 1.30 SUV
- Uptake in pancreas, liver, kidneys, upper intestines, prostate and seminal vesicles (in words) ([3]; normal mice, 1 hour after IV): high uptake
- Uptake in brain regions (regional SUVs) ([3]; normal mice, 1 hour after IV, span over brain regions): 0.2-0.5 SUV
- Murine brain uptake (in words) ([3]; normal mice, 60 minutes): moderately low, but significant
- Time at which whole-blood concentration relative to plasma reaches equilibrium ([4]; post-injection): around 90 minutes
- Time by which clearance from the blood is completed ([4]; venous blood samples after injection): ≤ 90 min
- Uptake in cerebral cortex, prostate, pituitary gland, and salivary glands (PET) ([5]; Alzheimer's disease subject): Moderate to low uptake
- Uptake in liver, pancreas, spleen, intestines, and thyroid (PET) ([5]; Alzheimer's disease subject): High uptake
- Uptake in cerebral cortex, pituitary gland, and salivary glands (PET) ([5]; healthy elderly human subject): Moderate to low uptake
- Uptake in liver, pancreas, spleen, intestines, and thyroid (PET) ([5]; healthy elderly human subject): High uptake
- Brain penetration (in words) ([6]; five normal male mice, IV, 1 hour): brain penetrant
- SUV, Prostate [6, 11]: 0.47 SUV and 0.85 SUV and 0.44 SUV
- SUV, Seminal Vesicle [6, 11]: 1.397 SUV and 2.588 SUV and 1.09 SUV
- SUV, Bladder, Average [6, 9]: 1.39 SUV
- SUV, Blood, Average [6, 9]: 0.57 ± 0.25 SUV
- SUV, Bone, Average [6, 9]: 0.76 ± 0.34 SUV
- SUV, Brain Stem, Average [6, 9]: 0.25 ± 0.09 SUV
- SUV, Caudate Nuclei, Average [6, 9]: 0.37 ± 0.23 SUV
- SUV, Cerebellum, Average [6, 9]: 0.31 ± 0.14 SUV
- SUV, Cortex, Average [6, 9]: 0.19 ± 0.07 SUV
- SUV, Heart, Average [6, 9]: 1.12 ± 0.23 SUV
- SUV, Hippocampus, Average [6, 9]: 0.48 ± 0.37 SUV
- SUV, Liver, Average [6, 9]: 6.0±1.9 SUV and 5.97 ± 1.92 SUV
- SUV, Lung, Average [6, 9]: 2.06 ± 0.62 SUV
- SUV, Muscle, Average [6, 9]: 0.21 ± 0.08 SUV
- SUV, Pancreas, Average [6, 9]: 8.8±3.2 SUV and 8.78 ± 3.22 SUV
- SUV, Prostate, Average [6, 9]: 0.58 ± 0.23 SUV
- SUV, Seminal Vesicle, Average [6, 9]: 1.69 ± 0.79 SUV
- SUV, Spleen, Average [6, 9]: 2.30 ± 1.01 SUV
- SUV, Thalamus, Average [6, 9]: 0.26 ± 0.10 SUV
- SUV, Upper Intestine, Average [6, 9]: 4.7±2.1 SUV and 4.72 ± 2.18 SUV
- SUV, Whole Brain, Average [6, 9]: 0.24 ± 0.09 SUV
- SUV, Pancreas, Average [6, 12]: 8.8±3.2 SUV
- SUV, Whole Brain, Average [6, 12]: 0.24±0.09 SUV
- SUV, Blood, Average [6, 13]: 0.57 SUV
- SUV, Bone, Average [6, 13]: 0.76 SUV
- SUV, Brain Stem, Average [6, 13]: 0.25 SUV
- SUV, Caudate Nuclei, Average [6, 13]: 0.37 SUV
- SUV, Cerebellum, Average [6, 13]: 0.31 SUV
- SUV, Cortex, Average [6, 13]: 0.19 SUV
- SUV, Heart, Average [6, 13]: 1.12 SUV
- SUV, Hippocampus, Average [6, 13]: 0.48 SUV
- SUV, Kidney, Average [6, 13]: 4.21 SUV
- SUV, Liver, Average [6, 13]: 5.97 SUV
- SUV, Lung, Average [6, 13]: 2.06 SUV
- SUV, Muscle, Average [6, 13]: 0.21 SUV
- SUV, Pancreas, Average [6, 13]: 8.78 SUV
- SUV, Prostate, Average [6, 13]: 0.58 SUV
- SUV, Seminal Vesicle, Average [6, 13]: 1.69 SUV
- SUV, Spleen, Average [6, 13]: 2.3 SUV
- SUV, Thalamus, Average [6, 13]: 0.26 SUV
- SUV, Upper Intestine, Average [6, 13]: 4.72 SUV
- SUV, Whole Brain, Average [6, 13]: 0.24 SUV
Compound: O=C([O-])CC(O)(CC(=O)[O-])C(=O)[O-].O=C([O-])CC(O)(CC(=O)[O-])C(=O)[O-].[63Zn+2].[63Zn+2].[63Zn+2] [^63Zn citrate]
- Vascular clearance phase in cerebral cortical region of interest ([2]; healthy elderly subject): rapid vascular clearance phase in the first minute
- Vascular clearance phase in cerebral cortical region of interest [2, 8]: rapid vascular clearance phase in the first minute
- Differences in SUVs between intracerebral regions (ANOVA) ([3]; normal mice, 1 hour): did not show statistically significant differences
- SUV, Bladder [6, 10]: 1.27 SUV and 3.66 SUV and 1.13 SUV and 0.73 SUV and 0.18 SUV
- SUV, Blood [6, 10]: 0.47 SUV and 0.36 SUV and 0.94 SUV and 0.69 SUV and 0.38 SUV
- SUV, Bone [6, 10]: 0.72 SUV and 0.5 SUV and 1.11 SUV (2×) and 0.38 SUV
- SUV, Brain Stem [6, 10]: 0.25 SUV (2×) and 0.34 SUV and 0.32 SUV and 0.11 SUV
- SUV, Caudate Nuclei [6, 10]: 0.34 SUV and 0.23 SUV and 0.57 SUV and 0.63 SUV and 0.09 SUV
- SUV, Cerebellum [6, 10]: 0.27 SUV (2×) and 0.38 SUV and 0.49 SUV and 0.13 SUV
- SUV, Cortex [6, 10]: 0.2 SUV (2×) and 0.19 SUV and 0.27 SUV and 0.09 SUV
- SUV, Heart [6, 10]: 1.11 SUV (2×) and 1.47 SUV and 1.1 SUV and 0.82 SUV
- SUV, Hippocampus [6, 10]: 0.28 SUV and 0.24 SUV and 0.88 SUV and 0.87 SUV and 0.12 SUV
- SUV, Kidney [6, 10]: 3.8 SUV and 4.32 SUV and 6.01 SUV and 4.49 SUV and 2.42 SUV
- SUV, Liver [6, 10]: 6.18 SUV and 5.27 SUV and 8.72 SUV and 6.29 SUV and 3.4 SUV
- SUV, Lung [6, 10]: 2.67 SUV and 1.8 SUV and 2.54 SUV and 2.19 SUV and 1.13 SUV
- SUV, Muscle [6, 10]: 0.2 SUV and 0.19 SUV and 0.31 SUV and 0.26 SUV and 0.1 SUV
- SUV, Pancreas [6, 10]: 10.67 SUV and 5.25 SUV and 11.95 SUV and 10.68 SUV and 5.33 SUV
- SUV, Spleen [6, 10]: 2.37 SUV and 1.8 SUV and 3.71 SUV and 2.62 SUV and 0.97 SUV
- SUV, Thalamus [6, 10]: 0.29 SUV and 0.25 SUV and 0.38 SUV and 0.28 SUV and 0.11 SUV
- SUV, Upper Intestine [6, 10]: 3.02 SUV and 2.99 SUV and 7.66 SUV and 6.46 SUV and 3.47 SUV
- SUV, Whole Brain [6, 10]: 0.25 SUV and 0.23 SUV and 0.35 SUV and 0.3 SUV and 0.1 SUV

Compound: [65Zn] [^65Zn]
- Zinc uptake in brain relative to the other metal ions measured [7]: several fold higher

Reference: patent US11103602B2, “PET imaging of zinc transport” (Mayo Foundation for Medical Education and Research, priority 2013, dated 2021)
